Measured values published in ChEMBL document CHEMBL5252564, “It's ok to be outnumbered - sub-stoichiometric modulation of homomeric protein complexes” (RSC Med Chem, 2023).
Each block holds one compound with its values, some of them ahead of it. Peptide text beside a SMILES is read from it. * marks the point of attachment. X1 = CC(C)[C@H](N*)B(O)O

Assays:
[1] = molecular target: T1, ATP-dependent Clp protease proteolytic subunit (Staphylococcus aureus (strain NCTC 8325)) (UniProt Q2G036); experiment: Inhibition of Staphylococcus aureus ClpP assessed as active site modification at 1 uM treated for 1 hr by mass spectrometry analysis relative to control
T1 sequence (whole entry): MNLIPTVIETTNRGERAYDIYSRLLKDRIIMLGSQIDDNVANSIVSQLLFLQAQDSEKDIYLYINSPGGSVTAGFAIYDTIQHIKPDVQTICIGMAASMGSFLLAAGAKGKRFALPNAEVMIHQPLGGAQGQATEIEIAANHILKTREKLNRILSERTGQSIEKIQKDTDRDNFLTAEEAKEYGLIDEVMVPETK

[2] = Binding affinity to Escherichia coli DegP using SPMFKGV-pNA as substrate at resting state by isothermal titration calorimetry
[3] = Binding affinity to Escherichia coli DegP using SPMFKGV-pNA as substrate at activated state by isothermal titration calorimetry
[4] = molecular target: Programmed cell death 1 ligand 1 (Homo sapiens) (UniProt Q9NZQ7)
Sequence of Programmed cell death 1 ligand 1 (Homo sapiens) (Q9NZQ7 whole entry): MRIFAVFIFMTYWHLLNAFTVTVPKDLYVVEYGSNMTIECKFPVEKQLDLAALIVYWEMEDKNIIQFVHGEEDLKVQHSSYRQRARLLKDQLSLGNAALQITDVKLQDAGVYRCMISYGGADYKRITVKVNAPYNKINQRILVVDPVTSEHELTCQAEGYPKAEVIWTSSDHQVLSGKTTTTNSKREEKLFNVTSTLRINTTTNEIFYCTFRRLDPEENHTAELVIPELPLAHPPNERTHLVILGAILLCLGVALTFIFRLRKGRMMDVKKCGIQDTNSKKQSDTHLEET
Description: Binding affinity to human PD-L1 (18 to 134 residues) expressed in Escherichia coli BL21(DE3) assessed as thermal stabilization by measuring melting temperature by DSF assay

inhibition [1]: 63%
SMILES: C#Cc1ccc(C(=O)C2CN(C(=O)CCCCCCCCC=C)S2(=O)=O)cc1 (stereo not given)

inhibition [1]: 35%
SMILES: C#CCCC[C@H]1OC(=O)[C@@H]1c1ccc(OC)cc1

SMILES: CSCC[C@H](NC(=O)[C@@H]1CCCN1C(=O)[C@@H](N)CC(=O)O)C(=O)N[C@@H](Cc1ccccc1)C(=O)N[C@@H](CCCCN)C(=O)N[C@@H](CC(C)C)C(=O)N[C@H](B(O)O)C(C)C (H-DPMFKL-X1)
Kd [2]: 6 µM | Kd [3]: 0.033 µM

SMILES: COc1nc(OCc2cccc(-c3ccccc3)c2C)ccc1CNCCNC(C)=O
ΔTm [4]: 13 °C
